Where “and” joins values, the source holds several entries; their conditions need not be identical. Equal entries are not always repeated.
Columns and labels:
Experiment in all cases: LanthaScreen Eu Kinase Binding Assay, panel of 486 biochemical kinase assays
[1] = target: various kinases (Homo sapiens, UniProt O43353); settings: kinase RIPK2; LanthaScreen Binding
[2] = target: various kinases (Homo sapiens, UniProt P45984); settings: MAPK9 (JNK2)
[3] = target: various kinases (Homo sapiens, UniProt Q9Y3S1); settings: kinase WNK2; LanthaScreen Binding
Sequence of various kinases (Homo sapiens, UniProt Q9Y3S1) (Q9Y3S1 whole entry): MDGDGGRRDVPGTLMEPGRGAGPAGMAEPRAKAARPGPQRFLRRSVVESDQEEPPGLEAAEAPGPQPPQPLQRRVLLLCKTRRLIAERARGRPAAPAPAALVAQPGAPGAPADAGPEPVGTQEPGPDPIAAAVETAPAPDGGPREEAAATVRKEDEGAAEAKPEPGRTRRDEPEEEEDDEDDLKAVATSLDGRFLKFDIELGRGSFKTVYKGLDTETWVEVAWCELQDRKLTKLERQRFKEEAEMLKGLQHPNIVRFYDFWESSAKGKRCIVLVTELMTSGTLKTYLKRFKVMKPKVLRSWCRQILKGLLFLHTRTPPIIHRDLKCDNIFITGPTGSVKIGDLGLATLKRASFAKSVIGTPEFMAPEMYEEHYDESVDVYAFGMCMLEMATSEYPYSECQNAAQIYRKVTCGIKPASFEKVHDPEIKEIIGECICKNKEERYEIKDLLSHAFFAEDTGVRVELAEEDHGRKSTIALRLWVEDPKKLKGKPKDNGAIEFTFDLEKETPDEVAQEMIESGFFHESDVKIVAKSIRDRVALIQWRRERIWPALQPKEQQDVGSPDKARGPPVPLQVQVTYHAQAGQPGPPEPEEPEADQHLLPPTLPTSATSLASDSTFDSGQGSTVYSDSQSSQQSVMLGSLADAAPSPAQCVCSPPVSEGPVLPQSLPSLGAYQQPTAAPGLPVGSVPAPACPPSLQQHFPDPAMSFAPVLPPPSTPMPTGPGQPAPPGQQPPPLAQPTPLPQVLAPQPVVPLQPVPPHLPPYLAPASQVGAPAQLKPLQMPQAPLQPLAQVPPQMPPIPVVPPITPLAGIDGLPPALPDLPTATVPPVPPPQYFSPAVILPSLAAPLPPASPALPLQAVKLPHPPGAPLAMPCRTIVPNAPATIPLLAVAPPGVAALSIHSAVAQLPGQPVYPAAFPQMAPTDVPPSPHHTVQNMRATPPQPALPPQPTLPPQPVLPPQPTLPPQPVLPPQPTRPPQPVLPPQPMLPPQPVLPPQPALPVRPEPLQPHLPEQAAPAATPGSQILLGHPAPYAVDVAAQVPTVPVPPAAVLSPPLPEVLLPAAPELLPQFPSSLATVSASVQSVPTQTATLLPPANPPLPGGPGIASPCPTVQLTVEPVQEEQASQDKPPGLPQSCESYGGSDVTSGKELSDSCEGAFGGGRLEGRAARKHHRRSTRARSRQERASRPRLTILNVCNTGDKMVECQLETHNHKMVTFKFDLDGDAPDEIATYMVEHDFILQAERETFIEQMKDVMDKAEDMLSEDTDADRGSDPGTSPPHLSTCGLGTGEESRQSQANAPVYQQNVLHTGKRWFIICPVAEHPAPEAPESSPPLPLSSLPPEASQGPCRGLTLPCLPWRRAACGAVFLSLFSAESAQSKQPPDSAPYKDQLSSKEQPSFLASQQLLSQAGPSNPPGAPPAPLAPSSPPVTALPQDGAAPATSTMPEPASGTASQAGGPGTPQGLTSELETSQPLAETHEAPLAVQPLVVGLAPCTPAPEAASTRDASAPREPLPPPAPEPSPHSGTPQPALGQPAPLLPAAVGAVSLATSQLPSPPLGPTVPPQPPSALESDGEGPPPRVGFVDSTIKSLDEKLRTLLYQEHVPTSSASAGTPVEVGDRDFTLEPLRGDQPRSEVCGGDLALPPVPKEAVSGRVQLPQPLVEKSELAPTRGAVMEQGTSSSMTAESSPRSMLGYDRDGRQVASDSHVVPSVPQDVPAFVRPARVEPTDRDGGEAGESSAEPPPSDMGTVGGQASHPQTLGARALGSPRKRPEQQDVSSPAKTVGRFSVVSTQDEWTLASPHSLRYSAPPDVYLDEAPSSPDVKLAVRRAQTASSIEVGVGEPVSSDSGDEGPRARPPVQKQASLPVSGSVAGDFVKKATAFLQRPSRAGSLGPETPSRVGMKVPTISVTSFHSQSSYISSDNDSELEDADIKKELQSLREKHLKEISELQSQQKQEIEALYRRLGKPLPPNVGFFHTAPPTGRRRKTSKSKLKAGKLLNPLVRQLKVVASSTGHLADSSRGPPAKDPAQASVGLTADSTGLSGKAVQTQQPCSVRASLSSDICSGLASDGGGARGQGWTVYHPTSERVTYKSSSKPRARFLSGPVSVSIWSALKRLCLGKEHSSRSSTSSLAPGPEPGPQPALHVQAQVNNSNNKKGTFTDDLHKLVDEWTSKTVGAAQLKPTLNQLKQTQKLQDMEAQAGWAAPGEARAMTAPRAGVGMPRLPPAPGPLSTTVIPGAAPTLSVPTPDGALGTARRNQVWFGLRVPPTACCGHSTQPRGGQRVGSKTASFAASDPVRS

[4] = target: various kinases (Homo sapiens, UniProt P52564); settings: MAP2K6 (MKK6)
Sequence of various kinases (Homo sapiens, UniProt P52564) (P52564 whole entry): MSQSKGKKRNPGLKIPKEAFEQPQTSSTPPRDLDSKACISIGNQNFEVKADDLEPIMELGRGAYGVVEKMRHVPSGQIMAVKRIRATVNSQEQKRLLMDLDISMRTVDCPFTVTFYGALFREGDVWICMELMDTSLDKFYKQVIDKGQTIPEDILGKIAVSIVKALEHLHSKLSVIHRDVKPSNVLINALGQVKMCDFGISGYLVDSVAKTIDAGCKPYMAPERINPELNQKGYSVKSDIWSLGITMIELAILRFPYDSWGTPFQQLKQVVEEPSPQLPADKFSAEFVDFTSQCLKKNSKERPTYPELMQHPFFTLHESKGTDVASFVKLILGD

[5] = target: various kinases (Homo sapiens, UniProt Q13705); settings: ACVR2B
[6] = target: various kinases (Homo sapiens, UniProt P53779); settings: MAPK10 (JNK3)
[7] = target: various kinases (Homo sapiens, UniProt P00519, Q252H); settings: ABL1 Q252H
[8] = target: T1, various kinases (Homo sapiens, UniProt Q8IYT8); settings: kinase ULK2; LanthaScreen Binding
T1 sequence (Q8IYT8 1-1036): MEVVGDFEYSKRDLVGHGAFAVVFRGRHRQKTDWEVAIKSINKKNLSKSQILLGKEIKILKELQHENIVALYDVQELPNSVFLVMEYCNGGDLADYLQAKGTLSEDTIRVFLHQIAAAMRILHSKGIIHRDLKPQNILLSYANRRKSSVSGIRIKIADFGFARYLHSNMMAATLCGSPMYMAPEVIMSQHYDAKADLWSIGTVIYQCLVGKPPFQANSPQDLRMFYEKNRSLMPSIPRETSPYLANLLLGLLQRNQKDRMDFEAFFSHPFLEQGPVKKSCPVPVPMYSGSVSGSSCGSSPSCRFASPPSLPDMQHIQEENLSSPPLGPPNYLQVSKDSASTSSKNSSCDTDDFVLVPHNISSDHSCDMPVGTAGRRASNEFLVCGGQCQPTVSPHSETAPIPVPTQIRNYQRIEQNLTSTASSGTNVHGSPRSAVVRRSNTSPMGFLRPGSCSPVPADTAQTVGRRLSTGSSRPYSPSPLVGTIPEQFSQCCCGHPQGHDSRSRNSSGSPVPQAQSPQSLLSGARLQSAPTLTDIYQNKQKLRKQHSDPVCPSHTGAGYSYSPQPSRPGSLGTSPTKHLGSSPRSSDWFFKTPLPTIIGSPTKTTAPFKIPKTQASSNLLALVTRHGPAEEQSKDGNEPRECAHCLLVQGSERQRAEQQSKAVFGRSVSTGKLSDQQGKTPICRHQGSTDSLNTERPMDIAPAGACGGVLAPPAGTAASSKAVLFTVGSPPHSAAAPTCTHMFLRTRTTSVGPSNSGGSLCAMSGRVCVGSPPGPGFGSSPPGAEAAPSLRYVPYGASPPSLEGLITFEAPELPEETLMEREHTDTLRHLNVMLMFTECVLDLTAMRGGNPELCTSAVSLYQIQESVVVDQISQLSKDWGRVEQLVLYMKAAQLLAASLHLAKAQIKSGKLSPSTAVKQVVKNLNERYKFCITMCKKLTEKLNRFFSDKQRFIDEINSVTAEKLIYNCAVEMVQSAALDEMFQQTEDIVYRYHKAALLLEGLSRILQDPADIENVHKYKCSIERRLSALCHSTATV

[9] = target: various kinases (Homo sapiens, UniProt Q04771, R206H); settings: ACVR1 (ALK2) R206H
[10] = target: various kinases (Homo sapiens, UniProt Q13873); settings: BMPR2
[11] = target: various kinases (Homo sapiens, UniProt Q8WXR4); settings: MYO3B (MYO3 beta)
[12] = target: various kinases (Homo sapiens, UniProt Q96GX5); settings: MASTL
[13] = target: various kinases (Homo sapiens, UniProt Q9UEW8); settings: kinase STK39 (STLK3); LanthaScreen Binding
[14] = target: various kinases (Homo sapiens, UniProt Q99683); settings: MAP3K5 (ASK1)
[15] = target: various kinases (Homo sapiens, UniProt Q86Y07); settings: kinase VRK2; LanthaScreen Binding
Sequence of various kinases (Homo sapiens, UniProt Q86Y07) (Q86Y07 whole entry): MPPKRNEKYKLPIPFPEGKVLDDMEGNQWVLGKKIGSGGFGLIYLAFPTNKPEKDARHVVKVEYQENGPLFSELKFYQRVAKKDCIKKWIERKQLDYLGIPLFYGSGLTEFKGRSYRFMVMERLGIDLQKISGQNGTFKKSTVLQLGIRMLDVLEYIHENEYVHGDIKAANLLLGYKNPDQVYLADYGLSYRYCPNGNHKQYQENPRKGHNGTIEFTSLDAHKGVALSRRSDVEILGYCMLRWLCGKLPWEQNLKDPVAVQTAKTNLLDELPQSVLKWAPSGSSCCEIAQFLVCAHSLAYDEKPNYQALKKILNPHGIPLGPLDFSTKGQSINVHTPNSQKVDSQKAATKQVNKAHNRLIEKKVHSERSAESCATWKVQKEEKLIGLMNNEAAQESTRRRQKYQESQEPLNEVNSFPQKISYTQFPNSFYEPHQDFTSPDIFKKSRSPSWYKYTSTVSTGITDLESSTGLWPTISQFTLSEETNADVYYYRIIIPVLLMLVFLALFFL

[16] = target: various kinases (Homo sapiens, UniProt P45983); settings: MAPK8 (JNK1)
[17] = target: various kinases (Homo sapiens, UniProt P04049, Y340D/Y341D); settings: kinase RAF1 (cRAF) Y340D Y341D; LanthaScreen Binding
Sequence of various kinases (Homo sapiens, UniProt P04049, Y340D/Y341D) (P04049 whole entry Y340D/Y341D): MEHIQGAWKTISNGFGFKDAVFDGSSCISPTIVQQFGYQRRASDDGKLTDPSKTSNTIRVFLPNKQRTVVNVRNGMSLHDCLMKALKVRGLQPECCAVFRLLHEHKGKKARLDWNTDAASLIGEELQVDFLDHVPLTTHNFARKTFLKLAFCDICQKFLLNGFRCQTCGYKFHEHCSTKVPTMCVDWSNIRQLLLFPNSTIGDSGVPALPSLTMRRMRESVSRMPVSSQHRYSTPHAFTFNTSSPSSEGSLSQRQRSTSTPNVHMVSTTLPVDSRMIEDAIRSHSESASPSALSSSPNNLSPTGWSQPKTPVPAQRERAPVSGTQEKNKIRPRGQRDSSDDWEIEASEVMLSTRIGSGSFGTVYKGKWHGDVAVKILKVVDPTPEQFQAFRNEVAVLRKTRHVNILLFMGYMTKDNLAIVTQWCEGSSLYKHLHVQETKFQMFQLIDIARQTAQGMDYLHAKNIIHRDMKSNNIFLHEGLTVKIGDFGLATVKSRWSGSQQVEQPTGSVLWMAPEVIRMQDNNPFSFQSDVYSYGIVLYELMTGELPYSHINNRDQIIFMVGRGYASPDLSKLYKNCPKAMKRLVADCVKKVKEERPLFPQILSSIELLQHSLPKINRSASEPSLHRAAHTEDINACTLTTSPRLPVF

[18] = target: various kinases (Homo sapiens, UniProt O00238); settings: BMPR1B (ALK6)
[19] = target: various kinases (Homo sapiens, UniProt Q86UE8); settings: kinase TLK2; LanthaScreen Binding
Sequence of various kinases (Homo sapiens, UniProt Q86UE8) (Q86UE8 whole entry): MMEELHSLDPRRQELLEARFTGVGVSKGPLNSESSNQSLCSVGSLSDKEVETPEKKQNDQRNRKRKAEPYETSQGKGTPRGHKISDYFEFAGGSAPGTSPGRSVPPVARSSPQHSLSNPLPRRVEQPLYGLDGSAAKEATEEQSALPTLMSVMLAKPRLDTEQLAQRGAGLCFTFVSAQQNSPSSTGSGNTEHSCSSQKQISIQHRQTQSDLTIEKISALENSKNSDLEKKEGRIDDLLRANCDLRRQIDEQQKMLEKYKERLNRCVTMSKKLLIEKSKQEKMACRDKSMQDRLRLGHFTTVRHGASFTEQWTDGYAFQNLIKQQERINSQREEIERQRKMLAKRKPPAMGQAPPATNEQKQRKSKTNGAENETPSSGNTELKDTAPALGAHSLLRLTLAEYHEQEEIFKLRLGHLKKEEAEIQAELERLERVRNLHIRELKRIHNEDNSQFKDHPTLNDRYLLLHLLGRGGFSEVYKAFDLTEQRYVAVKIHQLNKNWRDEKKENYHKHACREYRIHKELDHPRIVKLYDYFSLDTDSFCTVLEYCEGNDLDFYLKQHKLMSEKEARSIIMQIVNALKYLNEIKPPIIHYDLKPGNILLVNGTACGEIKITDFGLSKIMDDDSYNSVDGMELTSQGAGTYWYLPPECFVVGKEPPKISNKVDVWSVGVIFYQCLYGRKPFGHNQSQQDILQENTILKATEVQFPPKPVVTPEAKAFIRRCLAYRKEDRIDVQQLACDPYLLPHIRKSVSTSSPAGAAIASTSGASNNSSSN

[20] = target: various kinases (Homo sapiens, UniProt Q8TD08); settings: MAPK15 (ERK7)
[21] = target: various kinases (Homo sapiens, UniProt O94921); settings: CDK14 (PFTK1)/cyclin Y
[22] = target: various kinases (Homo sapiens, UniProt Q2M2I8); settings: AAK1
[23] = target: various kinases (Homo sapiens, UniProt Q9HBH9); settings: MKNK2 (MNK2)

Sequence of various kinases (Homo sapiens, UniProt O43353) (O43353 whole entry): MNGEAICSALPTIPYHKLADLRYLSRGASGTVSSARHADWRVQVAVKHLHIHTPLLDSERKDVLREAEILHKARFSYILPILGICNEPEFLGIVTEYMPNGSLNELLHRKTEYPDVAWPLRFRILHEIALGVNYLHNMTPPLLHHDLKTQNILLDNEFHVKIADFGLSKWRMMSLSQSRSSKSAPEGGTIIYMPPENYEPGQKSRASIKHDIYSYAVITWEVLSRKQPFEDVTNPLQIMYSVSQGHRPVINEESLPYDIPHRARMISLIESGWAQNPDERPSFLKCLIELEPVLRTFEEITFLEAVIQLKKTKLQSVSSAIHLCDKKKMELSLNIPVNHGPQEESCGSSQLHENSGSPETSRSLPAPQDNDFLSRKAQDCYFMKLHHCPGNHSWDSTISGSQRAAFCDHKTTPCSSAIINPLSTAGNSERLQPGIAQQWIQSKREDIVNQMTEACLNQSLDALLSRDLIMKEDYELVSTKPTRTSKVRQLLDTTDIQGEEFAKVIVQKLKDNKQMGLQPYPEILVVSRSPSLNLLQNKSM

Structure (SMILES): COc1ccc2c(c1)[C@]1(C[C@H]1c1ccc3c(/C=C/c4ccc(CN5C[C@@H](C)O[C@@H](C)C5)cc4)n[nH]c3c1)C(=O)N2 [CFI-400945]
- % Inhibition Average [1]: 3%
- % Inhibition Duplicate #1 [1]: 3%
- % Inhibition Duplicate #2 [1]: 3%
- % Inhibition [2]: -4% and -2%
- % Inhibition Average [3]: -3%
- % Inhibition Duplicate #1 [3]: -6%
- % Inhibition Duplicate #2 [3]: 0%
- % Inhibition [4]: 14%
- % Inhibition [5]: 4% and 0%
- % Inhibition [6]: 3% and -3%
- % Inhibition [7]: 72%
- % Inhibition Average [8]: 6%
- % Inhibition Duplicate #1 [8]: 2%
- % Inhibition Duplicate #2 [8]: 11%
- % Inhibition [9]: 9% and 13%
- % Inhibition [10]: 0% and 2%
- % Inhibition [11]: 7% and 6%
- % Inhibition [12]: 16% and 15%
- % Inhibition Average [13]: 20%
- % Inhibition Duplicate #1 [13]: 18%
- % Inhibition Duplicate #2 [13]: 22%
- % Inhibition [14]: -6% and -3%
- % Inhibition Average [15]: 13%
- % Inhibition Duplicate #1 [15]: 17%
- % Inhibition Duplicate #2 [15]: 8%
- % Inhibition [16]: 0% and -1%
- % Inhibition Average [17]: -3%
- % Inhibition Duplicate #1 [17]: -6%
- % Inhibition Duplicate #2 [17]: -1%
- % Inhibition [18]: 5% and 8%
- % Inhibition Average [19]: 9%
- % Inhibition Duplicate #1 [19]: 14%
- % Inhibition Duplicate #2 [19]: 5%
- % Inhibition [20]: 11% and 8%
- % Inhibition [21]: -4% and 2%
- % Inhibition [22]: 9% and 6%
- % Inhibition [23]: 26% and 29%
